{"source": "patent US11504371B2", "about": "“Quinazolines compound, preparation method therefor and application thereof” (Beijing Normal University, priority 2017, dated 2022)", "key": {"[1]": {"tested_on": "human neuroblastoma cell line (SH-SY5Y)", "test": "MTT assay, tumor cell proliferation inhibition, SH-SY5Y", "type": "cell-based", "conditions": "Homo sapiens, SH-SY5Y, 72 h, read-out: Tumor inhibition rate (IC50)", "procedure": "(§1) Cell lines to be tested: human hepatoma cell line (HepG2), human lung cancer cell line (A549), human prostate cancer cell line (DU145), human breast cancer cell line (MCF-7), human neuroblastoma cell line (SH-SY5Y), human gastric mucosal cell line (Ges-1) and human embryonic lung fibroblast cell line (CCC-HPF-1) (the cells to be tested were purchased from the Cancer Hospital of Chinese Academy of Medical Sciences).\n(§2) The cells in logarithmic growth phase were treated to prepare a single cell suspension, with the cell density adjusted, which was seeded in a 96-well cell culture plate. About 2×10^3 cells were contained in 100 μL per well, and cultured in a cell incubator at 37° C., 5% CO2, and saturated humidity for 24 h. The used medium was aspirated and abandoned, and then 100 μL of the target compound in different concentrations (0.1 μM-100 μM) were added for drug treatment. Five duplicate wells were prepared for each concentration. The background blank well, negative control well and positive control well were also prepared. All the wells were placed in a cell culture incubator at 37° C., 5% CO2, saturated humidity for another 72 h. Then, each well was added with 10 μL of MTT solution (5 mg/mL) and incubated for another 4 h. After that, each well was added with 100 μL of 10% SDS-0.1% NH4Cl (10% SDS purchased from Beijing Mengyimei Biotechnology Co., Ltd.) solution, and incubated at 37° C. for 10 h in the dark. Then, the absorbance OD was measured at 570 nm using a microplate reader at a reference wavelength of 650 nm. Cell proliferation inhibition was calculated according to the following formula: % inhibition=(ODcontrol−ODtreat)(ODcontrol−ODblank)×100. […] Each group was performed at least three times in parallel."}, "[2]": {"tested_on": "human breast cancer cell line (MCF-7)", "test": "MTT assay, tumor cell proliferation inhibition, MCF-7", "type": "cell-based", "conditions": "Homo sapiens, MCF7; MCF-7, MTT, 72 h; read-out: Tumor inhibition rate (IC50)", "procedure": "as §1, §2"}, "[3]": {"tested_on": "human hepatoma cell line (HepG2)", "test": "MTT assay, tumor cell proliferation inhibition, HepG2", "type": "cell-based", "conditions": "Homo sapiens, 72 h, read-out: Tumor inhibition rate (IC50)", "procedure": "as §1, §2"}, "[4]": {"tested_on": "HepG2 cancer cells", "test": "Nude mice bearing HepG2 cancer cells", "description": "Firstly, a tumor-bearing nude mouse model was established. […] Then, grouping and administration were performed; the nude mice (5 mice in each group) were randomly divided into several groups, such as ultra-pure water control group (blank), positive drug control group, and different dosage treatment groups. The nude mice in each group were administered continuously for 40 days. The nude mice were weighted every other day during the administration. Tumor volumes were measured and calculated."}, "[5]": {"tested_on": "human lung cancer cell line (A549)", "test": "MTT assay, tumor cell proliferation inhibition, A549", "type": "cell-based", "conditions": "for IC50: Homo sapiens, A549, MTT, 72 h, read-out: Tumor inhibition rate (IC50)", "procedure": "as §1, §2"}, "[6]": {"tested_on": "tumor cell strains HepG2, A549, MCF-7, DU145 and SH-SY5Y", "test": "MTT assay, summary over the five tumor cell lines", "type": "cell-based, human", "conditions": "HepG2, A549, MCF-7, DU145, SH-SY5Y", "procedure": "as §1\nThe cells in logarithmic growth phase were treated to prepare a single cell suspension, with the cell density adjusted, which was seeded in a 96-well cell culture plate. About 2×10^3 cells were contained in 100 μL per well, and cultured in a cell incubator at 37° C., 5% CO2, and saturated humidity for 24 h. The used medium was aspirated and abandoned, and then 100 μL of the target compound in different concentrations (0.1 μM-100 μM) were added for drug treatment. Five duplicate wells were prepared for each concentration. The background blank well, negative control well and positive control well were also prepared. All the wells were placed in a cell culture incubator at 37° C., 5% CO2, saturated humidity for another 72 h. Then, each well was added with 10 μL of MTT solution (5 mg/mL) and incubated for another 4 h. After that, each well was added with 100 μL of 10% SDS-0.1% NH4Cl (10% SDS purchased from Beijing Mengyimei Biotechnology Co., Ltd.) solution, and incubated at 37° C. for 10 h in the dark. Then, the absorbance OD was measured at 570 nm using a microplate reader at a reference wavelength of 650 nm. Cell proliferation inhibition was calculated according to the following formula: % inhibition=(ODcontrol−ODtreat)(ODcontrol−ODblank)×100. IC50 value, i.e., 50% proliferation inhibition concentration, was calculated by SPSS 16.0 software. Each group was performed at least three times in parallel.\nThe inhibitory activities of 35 target compounds against tumor cell strains HepG2, A549, MCF-7, DU145 and SH-SY5Y were tested by MTT assay (Table 1). Some compounds with optimal antitumor activity were selected."}, "[7]": {"tested_on": "human prostate cancer cell line (DU145)", "test": "MTT assay, tumor cell proliferation inhibition, DU145", "type": "cell-based", "conditions": "Homo sapiens, DU-145; DU145, MTT, 72 h; read-out: Tumor inhibition rate (IC50)", "procedure": "as §1, §2"}, "[8]": {"tested_on": "cells A549", "test": "Intracellular reactive oxygen species (fluorescence spectrometer)", "type": "cell-based, human", "conditions": "A549 after treatment", "from_the_text": "A part of the compound of anilino polyethylene glycol ether cycloquinazoline substituted with a substituted arylmethyl heteroatomic group represented by formula (I) are studied by detecting cell mitochondrial membrane potential and intracellular reactive oxygen species."}, "[9]": {"tested_on": "cell membrane", "test": "Cell membrane permeability test (Hoechst 33342 fluorescence)", "type": "cell-based", "conditions": "Hoechst 33342 fluorescence observation", "from_the_text": "One of the anilino polyethylene glycol ether cycloquinazoline substituted with a substituted arylmethyl heteroatomic group of formula (I), N-(4-((4-nitrophenyl)methoxy)phenyl)-6,7-(benzo-9-crown-3)-4-quinazolinamine, is studied by cell membrane permeability test. […] As the concentration of the target compound increases, the permeability is improved and the cells undergo apoptosis."}, "[10]": {"tested_on": "A549 cancer cells", "test": "Nude mice bearing A549 cancer cells", "type": "in vivo", "procedure": "In the present invention, the antitumor activity was evaluated by intraperitoneal injection to nude mice bearing different tumors, for compounds 3 (N-(4-((4-nitrophenyl)methoxy)phenyl)-6,7-(benzo-9-crown-3)-4-quinazolinamine) and 23 (compounds No. are shown in Table 1) (N-(3-((4-trifluoromethylphenyl)methoxy)phenyl)-6,7-(benzo-12-crown-4)-4-quinazolinamine) of formula (I).\nFirstly, a tumor-bearing nude mouse model was established. 0.2-1 mL of cell suspension was inoculated subcutaneously into the left lower limb of nude mice, and the drug was administered when the tumor volume reached about 100 mm^3. Then, grouping and administration were performed; the nude mice (5 mice in each group) were randomly divided into several groups, such as ultra-pure water control group (blank), positive drug control group, and different dosage treatment groups. The nude mice in each group were administered continuously for 40 days. The nude mice were weighted every other day during the administration. Tumor volumes were measured and calculated. Then tumor growth curve, tumor inhibition curve (see FIGS. 1 and 3) and weight change curve (see FIGS. 2 and 4) were drawn. […]. Among those, docetaxel suffers from high cumulative neurotoxic toxicity and drug resistance although it has the best effect. Comparing to docetaxel, compound 23 has a much lower toxicity and drug resistance, and thus has a great development prospect. […]"}, "[11]": {"tested_on": "A549 cells", "test": "Cell cycle experiment (PI staining, flow cytometer)", "type": "cell-based, human", "conditions": "for Cell proportion, G0/G1 / Cell proportion, G2/M / Cell proportion, S: 48 h", "procedure": "Experiment procedure: A549 cells in logarithmic growth phase (purchased from the Cancer Hospital of Chinese Academy of Medical Sciences) were seeded into 6-well cell culture plates, adjusted to 5×10^5 cells per well, and cultured in an incubator at 37° C., 5% CO2, and saturated humidity for 24 h. The used medium was discarded. The cells were treated with the target compounds in different concentrations for 48 h, and grouped to an administration group and a control group (non-administered). The cells were digested with 0.25% trypsin to form a single cell suspension, centrifuged at 1500 r/min for 5 min. The supernatant was discarded, and the cells were collected. The cells were washed twice with precooled PBS buffer, centrifuged at 1500 r/min for 5 min, added to 5 mL of precooled 70% ethanol, and placed at 4° C. for at least 24 h. After centrifugation, the supernatant was discarded, and the cells were washed twice with PBS and collected by centrifugation. The cells were suspended in 400 μL PBS, added with 30 μL of RNaseA (purchased from Corning Inc., USA) at the concentrations from 1 mg/mL to 50 μg/mL, and incubated at 37° C. for 30 min. The centrifuge tube was then inserted into an ice bath to stop digestion. After the tube was cooled, 50 μL of PI staining solution (500 μg/mL) (purchased from Corning Inc., USA) was added to a final concentration of 50 μg/mL. The tube was immersed in an ice bath to perform straining in the dark for 30 min-40 min, filtered through a 300 mesh nylon mesh, and tested by flow cytometer (FACS Vantage SE: BD, USA)."}}, "note": "Values joined by “and” are separate entries in the source; they are usually repeats but may differ in a detail not shown here. Equal entries are not always repeated. “Also recorded” adds a separate entry of the source. Marks after values point to notes of the source that are not given here."}
{"compound": "FC(F)(F)c1ccc(COc2ccc(Nc3ncnc4cc5c(cc34)OCCOCCOCCOCCO5)cc2)cc1", "note": "[Compound 35, N-(4-((4-trifluoromethylphenyl)methoxy)phenyl)-6,7-(benzo-15-crown-5)-4-quinazolinamine]", "values": [{"measurement": "IC50", "setting": "[1]", "value": 2.14, "unit": "µM"}, {"measurement": "IC50", "setting": "[2]", "value": 10, "unit": "µM"}, {"measurement": "IC50", "setting": "[3]", "value": 3.34, "unit": "µM"}, {"measurement": "melting point", "value": "197 to 198", "unit": "°C"}, {"measurement": "body weight of the mice (FIG. 6)", "setting": "[4]; 20 mg/Kg, single agent", "value": "significantly increased"}, {"measurement": "weight loss of nude mice (FIG. 6)", "setting": "[4]; 40 mg/Kg, single agent", "value": "weight loss of nude mice is similar"}, {"measurement": "tumor growth (tumor volume, FIG. 5)", "setting": "[4]; nude mice bearing HepG2, single agent", "value": "can slow down the tumor growth with increasing drug dose"}, {"measurement": "IC50", "setting": "[5]", "value": 8.56, "unit": "µM"}, {"measurement": "inhibitory effect on proliferation of the five tumor cells (in words)", "setting": "[6]", "value": "good inhibitory effect on proliferation of at least three of the five tumor cells; also recorded: high anticancer activity on all the five tumor cells"}, {"measurement": "IC50", "setting": "[7]", "value": 8.8, "unit": "µM"}]}
{"compound": "O=[N+]([O-])c1ccc(COc2ccc(Nc3ncnc4cc5c(cc34)OCCOCCO5)cc2)cc1", "note": "[Compound 3, N-(4-((4-nitrophenyl)methoxy)phenyl)-6,7-(benzo-9-crown-3)-4-quinazolinamine]", "values": [{"measurement": "intracellular reactive oxygen species (ROS)", "setting": "[8]", "value": "increased intracellular reactive oxygen species (ROS) and apoptosis"}, {"measurement": "IC50", "setting": "[1]", "value": 55.2, "unit": "µM"}, {"measurement": "effect on cell membrane permeability", "setting": "[9]", "value": "can increase the permeability of the cell membrane"}, {"measurement": "IC50", "setting": "[2]", "value": 39.7, "unit": "µM"}, {"measurement": "IC50", "setting": "[3]", "value": "> 100", "unit": "µM"}, {"measurement": "tumor inhibition", "setting": "[10]; 60 mg/Kg, FIG. 1", "value": "significant inhibited"}, {"measurement": "body weight", "setting": "[10]; 60 mg/Kg, FIG. 2", "value": "not decreased significantly"}, {"measurement": "tumor inhibitory effect (tumor volume, FIG. 1)", "setting": "[10]; nude mice bearing A549, intraperitoneal injection", "value": "remarkable tumor inhibitory effect; also recorded: high inhibitory effect"}, {"measurement": "inhibitory activity against A549 compared with gefitinib", "setting": "[10]; same dose 45 mg/Kg, FIG. 1", "value": "significantly higher"}, {"measurement": "IC50", "setting": "[5]", "value": 6.62, "unit": "µM"}, {"measurement": "inhibitory activity on A549 (in words)", "setting": "[5]; MTT, summary of Table 1", "value": "strong specific inhibitory activity"}, {"measurement": "cell cycle block (in words)", "setting": "[11]; A549, 0-40 μM", "value": "can block A549 in G0/G1 phase"}, {"measurement": "Cell proportion, G0/G1", "setting": "[11]; A549, 5 μM", "value": "84.51 ± 0.32 ^a %"}, {"measurement": "Cell proportion, G2/M", "setting": "[11]; A549, 5 μM", "value": "3.06 ± 0.12 ^ %"}, {"measurement": "Cell proportion, S", "setting": "[11]; A549, 5 μM", "value": "12.42 ± 0.10", "unit": "%"}, {"measurement": "Cell proportion, G0/G1", "setting": "[11]; A549, 10 μM", "value": "85.58 ± 0.44 ^a %"}, {"measurement": "Cell proportion, G2/M", "setting": "[11]; A549, 10 μM", "value": "3.05 ± 0.19 ^ %"}, {"measurement": "Cell proportion, S", "setting": "[11]; A549, 10 μM", "value": "11.39 ± 0.64", "unit": "%"}, {"measurement": "Cell proportion, G0/G1", "setting": "[11]; A549, 20 μM", "value": "87.23 ± 0.31 ^a %"}, {"measurement": "Cell proportion, G2/M", "setting": "[11]; A549, 20 μM", "value": "1.41 ± 0.05 ^a %"}, {"measurement": "Cell proportion, S", "setting": "[11]; A549, 20 μM", "value": "11.68 ± 0.26", "unit": "%"}, {"measurement": "Cell proportion, G0/G1", "setting": "[11]; A549, 40 μM", "value": "90.08% and 90.08 ± 0.62 ^a %"}, {"measurement": "Cell proportion, G2/M", "setting": "[11]; A549, 40 μM", "value": "2.04 ± 0.14 ^a %"}, {"measurement": "Cell proportion, S", "setting": "[11]; A549, 40 μM", "value": "7.90 ± 0.50 ^a %"}, {"measurement": "IC50", "setting": "[7]", "value": "> 100", "unit": "µM"}]}
